Experimental data taken from ChEMBL document CHEMBL1955849, “Design and synthesis of thiourea compounds that inhibit transmembrane anchored carbonic anhydrases” (Bioorg Med Chem, 2012).

How the values were obtained:
Carbonic anhydrase 1 = Carbonic anhydrase 1 (Homo sapiens, UniProt P00915)
Carbonic anhydrase 12 = Carbonic anhydrase 12 (Homo sapiens, UniProt O43570)
Carbonic anhydrase 14 = Carbonic anhydrase 14 (Homo sapiens, UniProt Q9ULX7)
Carbonic anhydrase 2 = Carbonic anhydrase 2 (Homo sapiens, UniProt P00918)
[1] = Solubility of the compound in water; type: physicochemical
Carbonic anhydrase 9 = Carbonic anhydrase 9 (Homo sapiens, UniProt Q16790)

Chain of Carbonic anhydrase 14 (Q9ULX7 whole entry): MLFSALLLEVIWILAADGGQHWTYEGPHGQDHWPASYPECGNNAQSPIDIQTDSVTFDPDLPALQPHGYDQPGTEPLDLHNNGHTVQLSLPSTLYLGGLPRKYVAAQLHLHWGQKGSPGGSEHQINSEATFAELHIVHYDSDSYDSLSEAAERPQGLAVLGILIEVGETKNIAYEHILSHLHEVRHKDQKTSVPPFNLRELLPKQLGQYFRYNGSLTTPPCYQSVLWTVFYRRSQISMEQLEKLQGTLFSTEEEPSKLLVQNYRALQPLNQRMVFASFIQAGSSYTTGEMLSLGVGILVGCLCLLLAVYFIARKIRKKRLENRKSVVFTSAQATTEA
Chain of Carbonic anhydrase 1 (P00915 whole entry): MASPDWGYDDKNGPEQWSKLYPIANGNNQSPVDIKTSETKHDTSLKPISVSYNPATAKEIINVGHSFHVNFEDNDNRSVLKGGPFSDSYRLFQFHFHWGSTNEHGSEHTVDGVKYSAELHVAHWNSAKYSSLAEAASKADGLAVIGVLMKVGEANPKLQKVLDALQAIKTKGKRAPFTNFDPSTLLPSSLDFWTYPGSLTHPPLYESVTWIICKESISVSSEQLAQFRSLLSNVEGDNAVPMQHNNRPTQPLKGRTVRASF
Chain of Carbonic anhydrase 12 (O43570 whole entry): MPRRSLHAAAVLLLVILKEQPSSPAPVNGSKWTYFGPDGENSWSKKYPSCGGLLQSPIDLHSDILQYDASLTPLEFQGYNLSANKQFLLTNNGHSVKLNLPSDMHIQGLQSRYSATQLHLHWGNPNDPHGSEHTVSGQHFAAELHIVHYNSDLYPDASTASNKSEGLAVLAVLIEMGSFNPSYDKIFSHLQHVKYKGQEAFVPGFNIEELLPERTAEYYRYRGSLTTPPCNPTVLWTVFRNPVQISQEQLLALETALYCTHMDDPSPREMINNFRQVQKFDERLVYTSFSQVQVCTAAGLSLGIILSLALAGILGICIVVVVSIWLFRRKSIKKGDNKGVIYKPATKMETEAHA

Ki (Carbonic anhydrase 1)	Ki (Carbonic anhydrase 12)	Ki (Carbonic anhydrase 14)	Ki (Carbonic anhydrase 2)	solubility [1]	Ki (Carbonic anhydrase 9)	Structure (SMILES)
6710 nM	45.6 nM	126 nM	524 nM	–	–	CC(=O)OC[C@H]1O[C@@H](NC(=S)Nc2ccc(S(N)(=O)=O)cc2)[C@H](OC(C)=O)[C@@H](OC(C)=O)[C@H]1OC(C)=O
6040 nM	10.1 nM	7.9 nM	539 nM	–	–	CC(=O)OC[C@H]1O[C@@H](NC(=S)Nc2ccc(S(N)(=O)=O)cc2)[C@H](OC(C)=O)[C@@H](OC(C)=O)[C@@H]1O[C@H]1O[C@H](COC(C)=O)[C@@H](OC(C)=O)[C@H](OC(C)=O)[C@H]1OC(C)=O
4060 nM	7.9 nM	44 nM	105 nM	> 20 mg/mL	8.3 nM	NS(=O)(=O)c1ccc(CNC(=S)N[C@@H]2O[C@H](CO)[C@@H](O[C@@H]3O[C@H](CO)[C@H](O)[C@H](O)[C@H]3O)[C@H](O)[C@H]2O)cc1
4930 nM	7.2 nM	8.3 nM	7 nM	–	–	CC(=O)OC[C@H]1O[C@@H](NC(=S)Nc2ccc(S(N)(=O)=O)cc2)[C@H](OC(C)=O)[C@@H](OC(C)=O)[C@@H]1OC(C)=O
2940 nM	7.6 nM	10.5 nM	10.2 nM	–	–	CC(=O)OC[C@H]1O[C@@H](NC(=S)NNC(=O)c2ccc(S(N)(=O)=O)cc2)[C@H](OC(C)=O)[C@@H](OC(C)=O)[C@@H]1O[C@H]1O[C@H](COC(C)=O)[C@@H](OC(C)=O)[C@H](OC(C)=O)[C@H]1OC(C)=O
–	8.7 nM	8.5 nM	7.4 nM	> 20 mg/mL	–	NS(=O)(=O)c1ccc(C(=O)NNC(=S)N[C@@H]2O[C@H](CO)[C@@H](O[C@@H]3O[C@H](CO)[C@H](O)[C@H](O)[C@H]3O)[C@H](O)[C@H]2O)cc1
4570 nM	8.4 nM	8.6 nM	7.3 nM	–	–	CC(=O)OC[C@H]1O[C@@H](NC(=S)NCc2ccc(S(N)(=O)=O)cc2)[C@H](OC(C)=O)[C@@H](OC(C)=O)[C@@H]1O[C@H]1O[C@H](COC(C)=O)[C@@H](OC(C)=O)[C@H](OC(C)=O)[C@H]1OC(C)=O
100 nM	8.2 nM	8.6 nM	7.6 nM	–	–	CC(=O)OC[C@H]1O[C@@H](O[C@H]2[C@H](OC(C)=O)[C@@H](OC(C)=O)[C@H](NC(=S)Nc3ccc(S(N)(=O)=O)cc3)O[C@@H]2COC(C)=O)[C@H](OC(C)=O)[C@@H](OC(C)=O)[C@H]1OC(C)=O
–	8.2 nM	8.6 nM	109 nM	> 20 mg/mL	–	NS(=O)(=O)c1ccc(C(=O)NNC(=S)N[C@@H]2O[C@H](CO)[C@@H](O[C@H]3O[C@H](CO)[C@@H](O)[C@H](O)[C@H]3O)[C@H](O)[C@H]2O)cc1
9 nM	9.7 nM	8 nM	108 nM	> 20 mg/mL	8.7 nM	NS(=O)(=O)c1ccc(CCNC(=S)N[C@@H]2O[C@H](CO)[C@@H](O)[C@H](O)[C@H]2O)cc1
3720 nM	8.4 nM	8.7 nM	9.8 nM	–	122 nM	CC(=O)OC[C@H]1O[C@@H](NC(=S)NCCc2ccc(S(N)(=O)=O)cc2)[C@H](OC(C)=O)[C@@H](OC(C)=O)[C@@H]1O[C@H]1O[C@H](COC(C)=O)[C@@H](OC(C)=O)[C@H](OC(C)=O)[C@H]1OC(C)=O
6300 nM	12.5 nM	8.5 nM	376 nM	> 20 mg/mL	8.4 nM	NS(=O)(=O)c1ccc(CNC(=S)N[C@@H]2O[C@H](CO)[C@@H](O[C@H]3O[C@H](CO)[C@@H](O)[C@H](O)[C@H]3O)[C@H](O)[C@H]2O)cc1
5790 nM	10.2 nM	108 nM	9.3 nM	> 20 mg/mL	2.8 nM	NS(=O)(=O)c1ccc(CCNC(=S)N[C@@H]2O[C@H](CO)[C@H](O)[C@H](O)[C@H]2O)cc1
7920 nM	300 nM	9.8 nM	7.5 nM	> 20 mg/mL	8.4 nM	NS(=O)(=O)c1ccc(NC(=S)N[C@@H]2O[C@H](CO)[C@@H](O[C@H]3O[C@H](CO)[C@@H](O)[C@H](O)[C@H]3O)[C@H](O)[C@H]2O)cc1
6340 nM	100 nM	807 nM	11.9 nM	–	–	CC(=O)OC[C@H]1O[C@@H](NC(=S)NCc2ccc(S(N)(=O)=O)cc2)[C@H](OC(C)=O)[C@@H](OC(C)=O)[C@H]1OC(C)=O
100 nM	7.5 nM	8.5 nM	7.8 nM	–	–	CC(=O)OC[C@H]1O[C@@H](NC(=S)NCc2ccc(S(N)(=O)=O)cc2)[C@H](OC(C)=O)[C@@H](OC(C)=O)[C@@H]1OC(C)=O
3770 nM	48.1 nM	9.1 nM	8.7 nM	–	362 nM	CC(=O)OC[C@H]1O[C@@H](O[C@H]2[C@H](OC(C)=O)[C@@H](OC(C)=O)[C@H](NC(=S)NCCc3ccc(S(N)(=O)=O)cc3)O[C@@H]2COC(C)=O)[C@H](OC(C)=O)[C@@H](OC(C)=O)[C@H]1OC(C)=O
7500 nM	8.2 nM	16 nM	377 nM	> 20 mg/mL	–	NS(=O)(=O)c1ccc(CNC(=S)N[C@@H]2O[C@H](CO)[C@@H](O)[C@H](O)[C@H]2O)cc1
7880 nM	8.6 nM	8 nM	525 nM	> 20 mg/mL	–	NS(=O)(=O)c1ccc(C(=O)NNC(=S)N[C@@H]2O[C@H](CO)[C@@H](O)[C@H](O)[C@H]2O)cc1
4040 nM	8.5 nM	8.2 nM	344 nM	> 20 mg/mL	–	NS(=O)(=O)c1ccc(C(=O)NNC(=S)N[C@@H]2O[C@H](CO)[C@H](O)[C@H](O)[C@H]2O)cc1
7980 nM	81 nM	55 nM	6.9 nM	> 20 mg/mL	258 nM	NS(=O)(=O)c1ccc(NC(=S)N[C@@H]2O[C@H](CO)[C@@H](O[C@@H]3O[C@H](CO)[C@H](O)[C@H](O)[C@H]3O)[C@H](O)[C@H]2O)cc1
6840 nM	20.1 nM	125 nM	222 nM	> 20 mg/mL	–	NS(=O)(=O)c1ccc(NC(=S)N[C@@H]2O[C@H](CO)[C@H](O)[C@H](O)[C@H]2O)cc1
5900 nM	8.1 nM	10.6 nM	6.4 nM	–	–	CC(=O)OC[C@H]1O[C@@H](O[C@H]2[C@H](OC(C)=O)[C@@H](OC(C)=O)[C@H](NC(=S)NNC(=O)c3ccc(S(N)(=O)=O)cc3)O[C@@H]2COC(C)=O)[C@H](OC(C)=O)[C@@H](OC(C)=O)[C@H]1OC(C)=O
6410 nM	7.8 nM	10.7 nM	8.6 nM	–	3.3 nM	CC(=O)OC[C@H]1O[C@@H](NC(=S)NNC(=O)c2ccc(S(N)(=O)=O)cc2)[C@H](OC(C)=O)[C@@H](OC(C)=O)[C@H]1OC(C)=O
110 nM	7.4 nM	8.5 nM	390 nM	–	–	CC(=O)OC[C@H]1O[C@@H](O[C@H]2[C@H](OC(C)=O)[C@@H](OC(C)=O)[C@H](NC(=S)NCc3ccc(S(N)(=O)=O)cc3)O[C@@H]2COC(C)=O)[C@H](OC(C)=O)[C@@H](OC(C)=O)[C@H]1OC(C)=O
3770 nM	7.3 nM	10.3 nM	10 nM	–	8.7 nM	CC(=O)OC[C@H]1O[C@@H](NC(=S)NNC(=O)c2ccc(S(N)(=O)=O)cc2)[C@H](OC(C)=O)[C@@H](OC(C)=O)[C@@H]1OC(C)=O

Structure (SMILES)	Ki (Carbonic anhydrase 1)	Ki (Carbonic anhydrase 12)	Ki (Carbonic anhydrase 14)	Ki (Carbonic anhydrase 2)	solubility [1]	Ki (Carbonic anhydrase 9)
CC(=O)OC[C@H]1O[C@@H](NC(=S)NCCc2ccc(S(N)(=O)=O)cc2)[C@H](OC(C)=O)[C@@H](OC(C)=O)[C@@H]1OC(C)=O	5510 nM	8.9 nM	8.8 nM	7.3 nM	–	451 nM
NS(=O)(=O)c1ccc(CCNC(=S)N[C@@H]2O[C@H](CO)[C@@H](O[C@H]3O[C@H](CO)[C@@H](O)[C@H](O)[C@H]3O)[C@H](O)[C@H]2O)cc1	4260 nM	9.8 nM	7.8 nM	271 nM	> 20 mg/mL	2.1 nM
NS(=O)(=O)c1ccc(NC(=S)N[C@@H]2O[C@H](CO)[C@@H](O)[C@H](O)[C@H]2O)cc1	7680 nM	8.2 nM	41 nM	7 nM	> 20 mg/mL	282 nM
CC(=O)OC[C@H]1O[C@@H](NC(=S)NCCc2ccc(S(N)(=O)=O)cc2)[C@H](OC(C)=O)[C@@H](OC(C)=O)[C@H]1OC(C)=O	100 nM	8.8 nM	8.7 nM	297 nM	–	433 nM
NS(=O)(=O)c1ccc(CCNC(=S)N[C@@H]2O[C@H](CO)[C@@H](O[C@@H]3O[C@H](CO)[C@H](O)[C@H](O)[C@H]3O)[C@H](O)[C@H]2O)cc1	100 nM	13.5 nM	8.4 nM	9 nM	> 20 mg/mL	8.9 nM
NS(=O)(=O)c1ccc(CNC(=S)N[C@@H]2O[C@H](CO)[C@H](O)[C@H](O)[C@H]2O)cc1	6420 nM	111 nM	129 nM	60 nM	> 20 mg/mL	6.9 nM
